The nature of series [1]: Calcium excretion (hypercalcemia assay) in rats. Format: in vivo. The conditions noted are these: for urinary calcium levels: concentration 20 fold greater than the concentration of calcitriol.
Experimental: Compound I(a) was tested for its effect on calcium excretion and weight gain in rats using a protocol described in Posner et al. J. Med. Chem. 41, 3008-3014, 1998.
Series [2] addresses T1, CYP27B1 (UniProt O15528).
T1 sequence (O15528 1-508): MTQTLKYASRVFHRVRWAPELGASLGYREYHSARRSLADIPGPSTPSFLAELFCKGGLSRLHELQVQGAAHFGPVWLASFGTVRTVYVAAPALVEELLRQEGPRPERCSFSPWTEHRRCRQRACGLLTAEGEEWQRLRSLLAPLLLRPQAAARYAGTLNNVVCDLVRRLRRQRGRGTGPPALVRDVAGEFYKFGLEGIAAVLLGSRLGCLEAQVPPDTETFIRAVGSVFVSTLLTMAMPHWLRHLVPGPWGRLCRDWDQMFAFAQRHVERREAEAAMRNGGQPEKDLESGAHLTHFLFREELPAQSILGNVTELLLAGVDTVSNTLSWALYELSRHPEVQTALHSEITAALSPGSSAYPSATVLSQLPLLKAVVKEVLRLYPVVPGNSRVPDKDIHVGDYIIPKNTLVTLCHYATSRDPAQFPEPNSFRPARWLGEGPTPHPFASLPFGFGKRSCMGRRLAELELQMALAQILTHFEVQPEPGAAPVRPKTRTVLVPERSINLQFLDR
The experiment in a line: Assay of CYP1-alpha hydroxylase (transfected COS-1 cells). Format: cell-based. The conditions noted are these: COS-1 cells transfected with CYP-1alpha hydroxylase cDNA, [3H-26,27]-25(OH)D3 substrate. The protocol:
Assay of CYP1-Alpha Hydroxylase (Using Transfected COS-1 Cells)
1. COS-1 cells (50-80% confluent)
2. FuGene 6 Transfection Reagent
3. PcDNA vector containing CYP-1alpha hydroxylase cDNA (1 μg/μl)
5. DMEM Medium (serum-free)
(ii) Transfection Cocktail Preparation (The Amount Depends on How Many Wells Transfected)
1. To a sterile tube, add serum-free medium (100 μl per well), Then add FuGene 6 Reagent (3 μl per well). Tap gently to mix. Pay attention to the order.
2. Add DNA solution (1 μg per well) to the prediluted FuGene 6 Reagent from step 2
3. Gently tap the tube to mix the contents. […] Incubate for 15 min at room temperature (no more than 45 min).
1. Trypsinize Cos-1 cells, centrifuge cell suspension, suspend cells pellet in DMEM medium+10% FCS.
2. Dilute the cells suspension to 750,000 cell/ml (75 cell/square),
1. Add 1.7 ml DMEM medium+10 O %FCS to each well of 6 well plate.
2. Transfer the correct volume of the cell suspension (200 μl/well) to the transfection cocktail. Mix them gently
3. Add 0.3 ml of the mixture to each well. Make sure that the same amount cells are added to each well. Swirl the wells to ensure even dispersal.
4. Incubate the cells for 24 hours at 37° C., 5% CO2 until enzyme activity assay.
(B) Enzyme Activity Assay
1. Wash cells once with PBS. Be careful, don't disturb the attached cells
2. Add 0.55 ml medium (DMEM+1%BSA) each well.
3. Add 0.025 ml medium containing test compounds
4. Incubate the cells for 10 minutes
6. Incubate the cells for 2 hour.
7. Add 1.5 ml Methanol to stop reaction
8. Add internal standard.
9. Transfer the medium to labeled tube.
10. Add 0.75 ml dichloromethane, vortex and keep in room temperature for 15 minutes.
11. Add 0.75 ml dichloromethane and 0.75 ml saturated KCl
12. Vortex and centrifuge
13. Remove upper phase and dry the lower phase in Speed-Vac
14. Add 110 μl mobile phase, vortex and centrifuge for 5 min.
15. Transfer 105 μl to the insert in HPLC vial.
16. HPLC analysis conditions:
Solvent: Hexane/isopropanol/methanol (91/7/2)
Detector: UV detector and radioactive detector.

For series [3], the target named is T2, CYP27A1 (Homo sapiens, UniProt Q02318).
T2 construct: fused on or other part: Possibly fused to adrenodoxin reductase and adrenodoxin, if the fusion enzyme of Dilworth et al. 1996 was used
T2 sequence (Q02318 34-531): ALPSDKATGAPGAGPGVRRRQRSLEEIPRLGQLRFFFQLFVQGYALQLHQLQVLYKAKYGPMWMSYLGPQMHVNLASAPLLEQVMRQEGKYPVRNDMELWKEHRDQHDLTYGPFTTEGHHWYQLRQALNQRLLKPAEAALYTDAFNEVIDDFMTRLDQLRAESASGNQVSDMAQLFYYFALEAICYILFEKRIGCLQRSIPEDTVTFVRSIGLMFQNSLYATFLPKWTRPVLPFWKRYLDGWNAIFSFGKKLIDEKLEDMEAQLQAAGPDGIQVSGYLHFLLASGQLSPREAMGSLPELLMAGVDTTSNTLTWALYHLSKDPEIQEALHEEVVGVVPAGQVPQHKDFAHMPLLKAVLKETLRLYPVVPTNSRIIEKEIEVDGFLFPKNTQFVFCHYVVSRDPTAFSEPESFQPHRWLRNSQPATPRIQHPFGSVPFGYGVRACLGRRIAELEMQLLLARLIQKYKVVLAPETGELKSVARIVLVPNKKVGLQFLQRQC
The series is described as follows: CYP27A1 enzyme assay. Format: biochemical. From the text:
Dilworth F J, Black S M, Guo Y D, Miller W L, Jones G. Construction of a P450c27 fusion enzyme: a useful tool for analysis of vitamin D3 25-hydroxylase (1996) Biochem J 320:267-271
Sawada N, Sakaki T, Ohta M, Inouye K. Metabolism of vitamin D (3) by human CYP27A1 (2000) Biochem Biophys Res Commun 273(3):977-84

The target of series [4] is T3, CYP24 (Homo sapiens, UniProt Q07973).
T3 construct: When the HPK1A-ras cells are 80-90% confluent, add 1 μL 10^−5 M 1,25(OH)2D3 to 1 mL medium; endogenous in cells; host or cells: HPK1A-ras cells induced with 10^-8 M 1,25(OH)2D3
T3 sequence (Q07973 36-514): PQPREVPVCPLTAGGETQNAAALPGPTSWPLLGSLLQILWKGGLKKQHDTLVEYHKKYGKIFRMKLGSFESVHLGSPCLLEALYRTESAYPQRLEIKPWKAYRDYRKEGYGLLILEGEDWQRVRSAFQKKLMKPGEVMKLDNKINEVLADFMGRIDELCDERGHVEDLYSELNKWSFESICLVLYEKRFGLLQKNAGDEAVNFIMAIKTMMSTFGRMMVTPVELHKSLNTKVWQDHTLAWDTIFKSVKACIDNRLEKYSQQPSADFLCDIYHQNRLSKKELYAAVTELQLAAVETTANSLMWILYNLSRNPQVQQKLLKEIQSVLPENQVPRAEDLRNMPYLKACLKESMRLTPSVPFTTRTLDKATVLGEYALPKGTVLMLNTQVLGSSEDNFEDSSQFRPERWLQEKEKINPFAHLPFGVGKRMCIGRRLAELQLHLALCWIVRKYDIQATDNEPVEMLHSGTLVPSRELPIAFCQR
The experiment in a line: CYP24 enzyme assay (induced HPK1A-ras cells). Format: cell-based. Conditions: [3H]-1,25(OH)2D3 substrate.
Experimental: CYP24 Enzyme Assay (Induced KPK1A-ras Cells)
(i) Material and Reagents:
Saturated KCl: KCl 30 g, H2O400 ml
1. Induction of HPK1A-ras cells (The day before assay)
When the HPK1A-ras cells are 80-90% confluent, add 1 μL 10^−5 M 1,25(OH)2D3 to 1 mL medium in the plate (final concentration is 10^−8 M).
2. Preparation of cell suspension
After 18 to 20 hours induction, remove the medium and wash the cell twice with PBS. Then tripsinize the cells from plate, centrifuge (2,000 rpm, 5 min) and suspend cells pellet in DMEM medium+1%BSA.
Count the cells and adjust cells density to 250,000/150 μL, add 150 μL cell suspension to each well in 48-well plate. (including 3 well as no cell control, and 3 well cells without drug or inhibitor as control).
3. Add 25 μL ketoconazole (final concentration 10^−5 M, 10^−6 M, 10^−7 M, 10^−1 M) or drugs into each designated well. Keep the plate in 37° C. for 10 min.
4. Preparation of substrate
Take certain amount of DMEM+1%BSA medium (25*Well number+200) μL to a tube, add certain amount of 3H-1,25(OH)2D3 (well number+2) μL and certain amount of 100 mM DPPD (well number/5) μL and mix them by vortex.
Add 25 mL substrate to each well, incubate the plate at 37° C. for 3 hour.
Add 25 mL substrate to counting plate (2 well) as a total count.
6. Lipid extraction and counting
Add 500 μL methanol to each well to stop the reaction, transfer them to tube
Add 250 μL dichloromethane and vortex.
Add 250 μL dichloromethane and 250 μL saturated KCl, and vortex.
Centrifuge at 4000 rpm for 5 min.
Transfer 100 μL of aqueous phase (upper phase) to counting plastic counting plate. Add 600 μL of scintillation fluid to each well. Count the plate in scintillation counter.
7. Calculation enzyme activity
CPM of cell control after subtraction of CPM of NCC is as 100% enzyme activity.
Enzyme activity=(CPM in test compounds well —CPM in NCC well)/(CPM in Cell control−CPM in NCC well)*100%

These results are taken from patent US20030149005A1, “24-sulfur-substituted analogs of 1alpha, 25-dihydroxy vitamin D3” (priority 2001, published 2003).

With `C=C1/C(=C\C=C2/CCC[C@]3(C)[C@@H]([C@H](C)CCS(=O)(=O)c4ccccc4)CC[C@@H]23)C[C@@H](O)C[C@@H]1O` [I(a)], the urinary calcium levels result in series [1] is “did not show an increase in urinary calcium levels”; in series [1] (listed as Ia) it was “did not increase the levels of calcium in the urine”. Further, the half-maximal inhibitory concentration (IC50) in series [2] and in series [3] was more than 10000 nM throughout.

Consider `C=C1/C(=C\C=C2/CCC[C@]3(C)[C@@H]([C@H](C)CCS(=O)(=O)c4ccc(Cl)cc4)CC[C@@H]23)C[C@@H](O)C[C@@H]1O` [I(e)], for which the IC50 in series [4] was 94 nM; in series [2] it was more than 1000 nM.

Consider `C=C1/C(=C\C=C2/CCC[C@]3(C)[C@@H]([C@H](C)CCS(=O)(=O)c4ccc(C)cc4)CC[C@@H]23)C[C@@H](O)C[C@@H]1O` [I(g)], for which the IC50 was 212 nM in series [4] and more than 1000 nM in series [2].

As to `C=C1/C(=C\C=C2/CCC[C@]3(C)C([C@H](C)CCSC(C)(C)C)=CC[C@@H]23)C[C@@H](O)C[C@@H]1O` [I(gg)], the IC50 in series [4] came to 467 nM; in series [2] it was 8460 nM.

Take `C=C1/C(=C\C=C2/CCC[C@]3(C)[C@@H]([C@H](C)CCS(=O)(=O)c4ccc(Cl)c(Cl)c4)CC[C@@H]23)C[C@@H](O)C[C@@H]1O` [I(i)]: the half-maximal inhibitory concentration (IC50) was 92 nM in series [4] and more than 1000 nM in series [2].

As to `C[C@H](CCS(=O)(=O)c1ccccc1)[C@H]1CC[C@H]2/C(=C/C=C3C[C@@H](O)C[C@H](O)C3)CCC[C@]12C` [I(u)], inhibition in series [4] was half-maximal at 160 nM (IC50). Besides, the calcemic activity result in series [1] (calcium excretion protocol) is given as “strongly non-calcemic”.

As to `C=C1/C(=C\C=C2/CCC[C@]3(C)[C@@H]([C@H](C)CCS(=O)(=O)C(C)(C)C)CC[C@@H]23)C[C@@H](O)C[C@@H]1O` [I(v)], the concentration for half-maximal inhibition (IC50) in series [4] is 219 nM; in series [2], more than 10000 nM.

Consider `C=C1/C(=C\C=C2/CCC[C@]3(C)[C@@H]([C@H](C)CCS(=O)(=O)C(C)C)CC[C@@H]23)C[C@@H](O)C[C@@H]1O` [I(w)], for which the results for the IC50 in series [4] and in series [2] were 90 nM and 9200 nM, respectively.

The term IC50 denotes the concentration needed to halve the response being measured.
